This note sets out measurements from ChEMBL document CHEMBL3351466 (Bioorg Med Chem Lett, 2014).

The target in assay [1] is T1, Transient receptor potential cation channel subfamily V member 1 (Homo sapiens, UniProt Q8NER1). In words: Antagonist activity at human TRPV1 expressed in CHO cells assessed as inhibition of capsaicin-induced increase in intracellular Ca2+ level by FLIPR assay. The class given is cell-based.
Assay [2] deals with Rattus norvegicus. In words: Analgesic activity in rat Bennett model for neuropathic pain […]. The class given is functional.
The target of assay [3] is T1, Transient receptor potential cation channel subfamily V member 1. In words: Antagonist activity at human TRPV1 expressed in CHO cells assessed as inhibition of heat-induced increase in intracellular Ca2+ level by FLIPR assay. The class given is cell-based.
For assay [4] the target is unchanged. In words: Antagonist activity at human TRPV1 expressed in CHO cells assessed as inhibition of N-arachidonoyl dopamine-induced increase in intracellular Ca2+ level by FLIPR assay. The class given is cell-based.
In assay [5] the test system is Mus musculus. Nature of the assay: Inhibition of capsaicin-induced hypothermia in NMRI mouse compound administered orally 15 mins prior challenge measured 30 mins post challenge. The class given is functional, organism-based.
The test system of assay [6] is Mus musculus. In words: Inhibition of capsaicin-induced hypothermia in NMRI mouse compound at 0.1 mg/kg, po administered 15 mins prior challenge measured 30 mins post challenge. The class given is functional.
The test system of assay [7] is Mus musculus. In words: Inhibition of capsaicin-induced hypothermia in NMRI mouse compound at 0.3 mg/kg, po administered 15 mins prior challenge measured 30 mins post challenge. The class given is functional.
Assay [8] deals with Rattus norvegicus. In words: Analgesic activity in orally dosed rat Bennett model for neuropathic pain. The class given is functional, organism-based.
Assay [9] relates to Rattus norvegicus. Nature of the assay: Analgesic activity in rat Bennett model for neuropathic pain at 1 mg/kg, po. The class given is functional.
Assay [10] concerns Rattus norvegicus. In words: Analgesic activity in rat Bennett model for neuropathic pain at 0.1 mg/kg, po. The class given is functional.

Each structure is given as a SMILES string.

T1 sequence (Q8NER1 whole entry): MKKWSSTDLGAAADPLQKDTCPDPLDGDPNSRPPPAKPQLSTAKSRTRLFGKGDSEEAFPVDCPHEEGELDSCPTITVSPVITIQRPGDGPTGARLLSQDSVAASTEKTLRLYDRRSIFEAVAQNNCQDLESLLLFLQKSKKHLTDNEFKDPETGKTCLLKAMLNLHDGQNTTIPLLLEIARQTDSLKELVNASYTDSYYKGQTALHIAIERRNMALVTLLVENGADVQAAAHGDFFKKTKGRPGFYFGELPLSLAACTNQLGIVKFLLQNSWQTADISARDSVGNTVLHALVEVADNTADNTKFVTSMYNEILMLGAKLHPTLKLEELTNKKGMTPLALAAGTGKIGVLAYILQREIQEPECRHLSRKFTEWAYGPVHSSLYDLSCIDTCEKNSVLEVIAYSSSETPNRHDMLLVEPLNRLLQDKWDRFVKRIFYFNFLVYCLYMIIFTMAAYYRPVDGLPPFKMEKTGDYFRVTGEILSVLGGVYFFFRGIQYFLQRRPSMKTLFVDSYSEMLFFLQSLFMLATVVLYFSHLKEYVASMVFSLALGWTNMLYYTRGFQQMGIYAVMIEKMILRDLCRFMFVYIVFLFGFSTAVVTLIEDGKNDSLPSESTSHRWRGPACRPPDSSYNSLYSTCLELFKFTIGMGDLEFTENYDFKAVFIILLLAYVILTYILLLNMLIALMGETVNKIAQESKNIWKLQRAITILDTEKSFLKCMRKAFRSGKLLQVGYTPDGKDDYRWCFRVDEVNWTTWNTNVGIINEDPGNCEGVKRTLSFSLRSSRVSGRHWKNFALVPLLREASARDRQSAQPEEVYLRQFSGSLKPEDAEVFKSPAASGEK

As a reminder, the Ki is the dissociation constant of the complex between target and ligand, obtained from inhibition or displacement. Take `CC(C(=O)NCc1ccc(C(F)(F)F)nc1[C@H]1CC[C@@H](C(C)(C)C)CC1)c1ccc(NS(C)(=O)=O)c(F)c1` (stereo partly drawn): the Ki in [1] is 1.3 nM.

Usually ED50 stands for the dose at which the effect has come halfway, by size or by number of responders. Regarding `CC(C)C[C@H](CN)CC(=O)O` [PREGABALIN], in [2], the ED50 turned out to be 42.2 mg/kg.

In the case of `CC(C(=O)NCc1ccc(C(F)(F)F)nc1C1CC2CCC1C2)c1ccc(NS(C)(=O)=O)c(F)c1` (racemic), in assay [1], the inhibition constant (Ki) was found to be 1.5 nM.

On to `CCC1CCC(c2nc(C(F)(F)F)ccc2CNC(=O)[C@@H](C)c2ccc(NS(C)(=O)=O)c(F)c2)CC1` (stereo partly drawn), for which the Ki in assay [1] was found to be 0.2 nM.

With `CC(C(=O)NCc1ccc(C(F)(F)F)nc1C1=CCC(C)(C)CC1)c1ccc(NS(C)(=O)=O)c(F)c1` (racemic), in assay [1], the Ki turned out to be 0.2 nM.

For `C[C@H](C(=O)NCc1ccc(C(F)(F)F)nc1C1=CCC(C(C)(C)C)CC1)c1ccc(NS(C)(=O)=O)c(F)c1` (stereo partly drawn), in assay [1], the Ki turned out to be 0.1 nM.

As for `CC(C(=O)NCc1ccc(C(F)(F)F)nc1C1CCC(F)(F)CC1)c1ccc(NS(C)(=O)=O)c(F)c1` (stereo not drawn), in assay [1], the Ki was 1.5 nM.

Consider `CC(C(=O)NCc1ccc(C(F)(F)F)nc1C1CCC(C)(C)CC1)c1ccc(NS(C)(=O)=O)c(F)c1` (racemic), for which the Ki in [1] came out at 0.4 nM.

In the case of `CC1CCC(c2nc(C(F)(F)F)ccc2CNC(=O)C(C)c2ccc(NS(C)(=O)=O)c(F)c2)CC1` (stereo not drawn), the Ki in [1] came to 0.4 nM.

As for `CC(C(=O)NCc1ccc(C(F)(F)F)nc1C1CCC(C(C)(C)C)CC1)c1ccc(NS(C)(=O)=O)c(F)c1` (stereo not drawn), the Ki in assay [1] was 0.3 nM.

Regarding `CCCc1nc(C(F)(F)F)ccc1CNC(=O)C(C)c1ccc(NS(C)(=O)=O)c(F)c1` (stereo not drawn), the Ki in [1] came out at 22.7 nM.

Take `C[C@H](C(=O)NCc1ccc(C(F)(F)F)nc1C1=CCC(C)(C)CC1)c1ccc(NS(C)(=O)=O)c(F)c1`: in [1], the Ki was 0.1 nM.

Regarding `CC(C(=O)NCc1ccc(C(F)(F)F)nc1[C@H]1CC[C@H](C(C)(C)C)CC1)c1ccc(NS(C)(=O)=O)c(F)c1` (stereo partly drawn), the Ki in assay [1] was 0.3 nM.

For the compound `C[C@H](C(=O)NCc1ccc(C(F)(F)F)nc1C1CC2CCC1C2)c1ccc(NS(C)(=O)=O)c(F)c1` (stereo partly drawn), in assay [1], the Ki is 0.8 nM.

Turning to `C[C@H](C(=O)NCc1ccc(C(F)(F)F)nc1C1CCCCC1)c1ccc(NS(C)(=O)=O)c(F)c1`, the Ki in [1] came out at 0.3 nM.

In the case of `C[C@H](C(=O)NCc1ccc(C(F)(F)F)nc1C1CCC(C)(C)CC1)c1ccc(NS(C)(=O)=O)c(F)c1`, the Ki in assay [1] came out at 0.3 nM.

In the case of `CC(C(=O)NCc1ccc(C(F)(F)F)nc1C1=CCC(C(C)(C)C)CC1)c1ccc(NS(C)(=O)=O)c(F)c1` (racemic), the Ki in [1] came out at 0.2 nM.

Take `CCC1CCC(c2nc(C(F)(F)F)ccc2CNC(=O)C(C)c2ccc(NS(C)(=O)=O)c(F)c2)CC1` (racemic): the Ki in assay [1] came out at 0.3 nM.

Turning to `CC1C=C(c2nc(C(F)(F)F)ccc2CNC(=O)C(C)c2ccc(NS(C)(=O)=O)c(F)c2)CCC1` (stereo not drawn), the Ki in [1] came to 0.2 nM.

Regarding `CC1CC=C(c2nc(C(F)(F)F)ccc2CNC(=O)[C@@H](C)c2ccc(NS(C)(=O)=O)c(F)c2)CC1` (stereo partly drawn), in assay [1], the inhibitory constant (Ki) came out at 0.2 nM.

Broadly, the IC50 is the midpoint of a concentration-inhibition curve. One may read the inhibition in vivo as the drop in the measured response relative to a control, in per cent. For the compound `CC(C(=O)NCc1ccc(C(F)(F)F)nc1C1CCCCC1)c1ccc(NS(C)(=O)=O)c(F)c1` (stereo not drawn), the IC50 in assay [3] stood at 14.1 nM. Moreover, in assay [4], the Ki turned out to be 0.2 nM. In addition, in assay [5], the inhibition entry was “Dose-dependent effect”. The same compound yielded an inhibition in vivo at 0.1 mg/kg in assay [6] of 24%. Moreover, testing at 0.3 mg/kg in [7] gave an inhibition in vivo of 78%. In addition, in assay [8], the Activity result is “Dose-dependent effect”. Further, the “%max” value in [9] was found to be 53%; in [10], 25%.
